Data on twelve compounds can be found in paper PMC9887599, “Synthesis, Optical Properties, and Antiproliferative Evaluation of NBD-Triterpene Fluorescent Probes” (Journal of Natural Products, 2022).

Each structure is given as a SMILES string.

Series [1] relates to B16-F10 murine melanoma. Kind of series: MTT cell-viability assay, B16-F10. Format: cell-based. The following applies: Mus musculus, 72 h, untreated control cells as 100% viability. The procedure: (§1) The cytotoxic effects of 12 NBD-Aa-triterpene conjugates (1–12) were tested on three different cancer cell lines as a representation of cancers from different tissues and organs (B16-F10 murine melanoma, HT-29 human colon adenocarcinoma, and HepG2 human hepatocyte carcinoma). Cell viability was determined by MTT colorimetric analysis, with increasing concentration levels of each compound (0–200 μg/mL) and incubation for 72 h. The MTT assay was based on the metabolic reduction of 3-(4,5-dimethylthiazol-2-yl)-2,5-diphenyltetrazolium bromide (MTT) to a violet-colored compound (formazan), with a maximum absorbance at 570 nm. Cell viability was proportional to the amount of formazan and was expressed as the percentage of viable treated cells relative to untreated control cells. The concentration at which the derivatives halved the number of viable cells in the three cancer lines (IC50) was determined. […] These NBD conjugates of BO or BM also had higher IC50 values than their precursors (BO or BM), even in NBD conjugates with the shortest-chain ω-amino acid linker (6AHA) (Table 2). Due to these high IC50 values, all of these NBD-conjugated compounds were discarded for further cytometric studies.
(§2) The effect of the synthesized compounds on the viability of tumor cells was assessed using the MTT assay, based on the ability of living cells to metabolically reduce 3-(4,5-dimethylthiazole)-2,5-diphenyltetrazole bromide, rendering formazan, a colored compound with a maximum absorbance of 570 nm. To study the cytotoxic effects of the compounds in the three cancer cell lines, the different lines were seeded in 96-well plates at a cell density per well of 5 × 10^3 for B16-F10, 6 × 10^3 for HT-29, and 15 × 10^3 for HepG2. After seeding, the plates were grown for 24 h and subsequently treated in triplicate with different compounds at different concentrations (0–200 μg/mL) for 72 h. After this time, the cells were stained by adding […] of MTT (0.5 mg/mL) per well and incubated for 1 h. Subsequently, the cells were washed with phosphate-buffered saline (PBS), and formazan was resuspended in 100 μL of DMSO per well. Cell viability was measured by absorbance at 550 nm in an ELISA plate reader (Tecan Sunrise MR20–301, TECAN, Austria).
(§3) For this, Sigmaplot 12.5 software was used, and all quantitative data were expressed as means ± standard deviation (SD). All data shown are representative of at least two independent experiments performed in triplicate.

In series [2] the test system is HT-29 human colon adenocarcinoma. The series can be described thus: MTT cell-viability assay, HT-29. The class given is cell-based. Conditions: 72 h, untreated control cells as 100% viability. As to the method: as §1, §2, §3
In general terms: Tetrazolium dyes change colour on reduction, which living cells bring about.

For series [3], the system named is HepG2 human hepatocyte carcinoma. The series can be described thus: MTT cell-viability assay, HepG2. Conditions: 72 h, untreated control cells as 100% viability. The class given is cell-based. The procedure: as §1, §2, §3
The subject of series [4] is B16-F10, HT-29, and HepG2. Kind of series: MTT cell-viability assay, summary over the three cancer cell lines. Format: cell-based, mouse, human. The following applies: 72 h, stated as holding in most cases, read-out: IC50 concentrations over the three cancer cell lines, in most cases. As to the method: as §1, §2, §3
The nature of series [5]: Absorption and fluorescence spectroscopy (photophysical data). The class given is physicochemical. The following applies: DMSO, 25 °C; for τ (half-life time of fluorescence): 485 nm pulsed LED; for Φ (fluorescence quantum yield): Coumarin 6 as standard; for (λem)max: excitation at 480 nm.

On to `CC1(C)CC[C@]2(C(=O)OCc3ccccc3)CC[C@]3(C)C(=CC[C@@H]4[C@@]5(C)C[C@@H](O)[C@H](O)C(C)(C)[C@@H]5CC[C@]43C)[C@@H]2C1` [BM, 28-benzyl maslinate, reference compound], for which the IC50 was found to be 19 ± 0.2 µM in series [1], 15.3 ± 0.5 µM in series [2] and 17 µM in series [3].
Take `CC1(C)CC[C@]2(C(=O)OCc3ccccc3)CC[C@]3(C)C(=CC[C@@H]4[C@@]5(C)CC[C@H](O)C(C)(C)[C@@H]5CC[C@]43C)[C@@H]2C1` [BO, 28-benzyl oleanolate, reference compound]: the IC50 in series [1] was found to be 52.2 ± 0.9 µM; in series [2] it was 67.1 ± 3.2 µM; in series [3] it was 38.7 ± 1.7 µM.
In turn, `CC1(C)CC[C@]2(C(=O)OCc3ccccc3)CC[C@]3(C)C(=CC[C@@H]4[C@@]5(C)CC[C@H](OC(=O)CCCCCNc6ccc([N+](=O)[O-])c7nonc67)C(C)(C)[C@@H]5CC[C@]43C)[C@@H]2C1` [Compound 3, Benzyl 3β-((6-((7-Nitrobenzo[C][1,2,5]oxadiazol-4-yl)amino)hexanoyl)oxy)olean-12-en-28-oate] returned an IC50 in series [1] of 76.6 ± 3.7 µM. In series [2], this compound gave an IC50 of 63.3 ± 2.4 µM. For the same compound, the IC50 in series [3] was found to be 74.3 ± 0.7 µM. In addition, the IC50 in series [4] was over 80 µM. Moreover, in series [5], the “(λabs)max” value came to 480 nm, the “ε (molar extinction coefficient)” value came out at 4035 M^–1 cm^–1, the “τ (half-life time of fluorescence)” value stood at 7.761 ns and the “Φ (fluorescence quantum yield)” value is 0.67. In addition, in series [5], the “(λem)max” value is on record as 545 nm.
In series [1], `CC1(C)CC[C@]2(C(=O)OCc3ccccc3)CC[C@]3(C)C(=CC[C@@H]4[C@@]5(C)C[C@@H](OC(=O)CCCCCNc6ccc([N+](=O)[O-])c7nonc67)[C@H](O)C(C)(C)[C@@H]5CC[C@]43C)[C@@H]2C1` [Compound 4, Benzyl 3β-Hydroxy-2α-((6-((7-nitrobenzo[c][1,2,5]oxadiazol-4-yl)amino)hexanoyl)oxy)olean-12-en-28-oate] gave an IC50 of 96.4 ± 0.9 µM. The IC50 in series [2] was 121 ± 4 µM. Moreover, in series [3], the IC50 stood at 91.2 ± 2.3 µM. Moreover, the IC50 in series [4] was over 80 µM. Further, in series [5], the “(λabs)max” value is 480 nm, the “ε (molar extinction coefficient)” value is 1338 M^–1 cm^–1, the “τ (half-life time of fluorescence)” value amounted to 7.650 ns and the “Φ (fluorescence quantum yield)” value is 0.72. Besides, the “(λem)max” value in series [5] came out at 545 nm.
Regarding `CC1(C)CC[C@]2(C(=O)O)CC[C@]3(C)C(=CC[C@@H]4[C@@]5(C)CC[C@H](OC(=O)CCCCCCCNc6ccc([N+](=O)[O-])c7nonc67)C(C)(C)[C@@H]5CC[C@]43C)[C@@H]2C1` [Compound 5, 3β-((8-((7-Nitrobenzo[c][1,2,5]oxadiazol-4-yl)amino)octanoyl)oxy)olean-12-en-28-oic Acid], in series [1], the IC50 is 137 ± 2 µM. Also, in series [2], the IC50 turned out to be 105 ± 1.2 µM. The same compound yielded an IC50 in series [3] of 95.7 ± 3.4 µM. Further, the IC50 in series [4] was over 50 µM. For the same compound, in series [5], the “(λabs)max” value amounted to 480 nm, the “ε (molar extinction coefficient)” value came out at 1144 M^–1 cm^–1, the “τ (half-life time of fluorescence)” value came out at 7.654 ns and the “Φ (fluorescence quantum yield)” value is 0.73. Moreover, the “(λem)max” value in series [5] came to 545 nm.
As for `CC1(C)CC[C@]2(C(=O)O)CC[C@]3(C)C(=CC[C@@H]4[C@@]5(C)C[C@@H](OC(=O)CCCCCCCNc6ccc([N+](=O)[O-])c7nonc67)[C@H](O)C(C)(C)[C@@H]5CC[C@]43C)[C@@H]2C1` [Compound 6, 3β-Hydroxy-2α-((8-((7-nitrobenzo[c][1,2,5]oxadiazol-4-yl)amino)octanoyl)oxy)olean-12-en-28-oic Acid], the IC50 in series [1] is 39.5 ± 0.8 µM. Moreover, the IC50 in series [2] worked out at 45.2 ± 0.9 µM. Moreover, in series [3], the IC50 is 98.5 ± 0.8 µM. The IC50 in series [4] was over 50 µM. Besides, in series [5], the “(λabs)max” value was 481 nm, the “ε (molar extinction coefficient)” value was 1986 M^–1 cm^–1, the “τ (half-life time of fluorescence)” value was 7.621 ns and the “Φ (fluorescence quantum yield)” value stood at 0.55. The “(λem)max” value in series [5] came out at 546 nm.
With `CC1(C)CC[C@]2(C(=O)OCc3ccccc3)CC[C@]3(C)C(=CC[C@@H]4[C@@]5(C)CC[C@H](OC(=O)CCCCCCCNc6ccc([N+](=O)[O-])c7nonc67)C(C)(C)[C@@H]5CC[C@]43C)[C@@H]2C1` [Compound 7, Benzyl 3β-((8-((7-Nitrobenzo[c][1,2,5]oxadiazol-4-yl)amino)octanoyl)oxy)olean-12-en-28-oate], the IC50 in series [1] is 74.2 ± 2.2 µM. The same compound had an IC50 in series [2] of 95.9 ± 2.2 µM. The IC50 in series [3] stood at 71.6 ± 1.7 µM. In series [4], the IC50 was over 80 µM. Moreover, in series [5], the “(λabs)max” value was found to be 480 nm, the “ε (molar extinction coefficient)” value worked out at 2645 M^–1 cm^–1, the “τ (half-life time of fluorescence)” value amounted to 7.724 ns and the “Φ (fluorescence quantum yield)” value is 0.71. Further, the “(λem)max” value in series [5] is on record as 547 nm.
For the compound `CC1(C)CC[C@]2(C(=O)OCc3ccccc3)CC[C@]3(C)C(=CC[C@@H]4[C@@]5(C)C[C@@H](OC(=O)CCCCCCCNc6ccc([N+](=O)[O-])c7nonc67)[C@H](O)C(C)(C)[C@@H]5CC[C@]43C)[C@@H]2C1` [Compound 8, Benzyl 3β-Hydroxy-2α-((8-((7-nitrobenzo[c][1,2,5]oxadiazol-4-yl)amino)octanoyl)oxy)olean-12-en-28-oate], the IC50 in series [1] was 96.8 ± 1.8 µM. The IC50 in series [2] was 123 ± 1.7 µM. In series [3], this compound yielded an IC50 of 95.3 ± 0.7 µM. For the same compound, the IC50 in series [4] was over 80 µM. Further, in series [5], the “(λabs)max” value was 481 nm, the “ε (molar extinction coefficient)” value was 3358 M^–1 cm^–1, the “τ (half-life time of fluorescence)” value is 7.639 ns and the “Φ (fluorescence quantum yield)” value is listed as 0.59. The “(λem)max” value in series [5] is recorded as 548 nm.
Turning to `CC1(C)CC[C@]2(C(=O)O)CC[C@]3(C)C(=CC[C@@H]4[C@@]5(C)CC[C@H](OC(=O)CCCCCCCCCCNc6ccc([N+](=O)[O-])c7nonc67)C(C)(C)[C@@H]5CC[C@]43C)[C@@H]2C1` [Compound 9, 3β-((11-((7-Nitrobenzo[c][1,2,5]oxadiazol-4-yl)amino)undecanoyl)oxy)olean-12-en-28-oic Acid], in series [1], the IC50 was 101.1 ± 0.9 µM. Moreover, the IC50 in series [2] came out at 113 ± 4.4 µM. This compound also showed an IC50 in series [3] of 84.5 ± 0.4 µM. Besides, the IC50 in series [4] is over 50 µM. Besides, in series [5], the “(λabs)max” value amounted to 481 nm, the “ε (molar extinction coefficient)” value turned out to be 1015 M^–1 cm^–1, the “τ (half-life time of fluorescence)” value amounted to 7.635 ns and the “Φ (fluorescence quantum yield)” value was determined as 0.71. The “(λem)max” value in series [5] is reported as 546 nm.
Take `CC1(C)CC[C@]2(C(=O)O)CC[C@]3(C)C(=CC[C@@H]4[C@@]5(C)C[C@@H](OC(=O)CCCCCCCCCCNc6ccc([N+](=O)[O-])c7nonc67)[C@H](O)C(C)(C)[C@@H]5CC[C@]43C)[C@@H]2C1` [Compound 10, 3β-Hydroxy-2α-((11-((7-nitrobenzo[c][1,2,5]oxadiazol-4-yl)amino)undecanoyl)oxy)olean-12-en-28-oic Acid]: in series [1], the IC50 is 107.7 ± 0.4 µM. In series [2], this compound gave an IC50 of 110 ± 5.2 µM. In series [3], the IC50 was determined as 122.8 ± 0.9 µM. In addition, the IC50 in series [4] is over 50 µM. Further, in series [5], the “(λabs)max” value amounted to 481 nm, the “ε (molar extinction coefficient)” value came to 1199 M^–1 cm^–1, the “τ (half-life time of fluorescence)” value is given as 7.153 ns and the “Φ (fluorescence quantum yield)” value came to 0.45. Further, the “(λem)max” value in series [5] amounted to 546 nm.
As to `CC1(C)CC[C@]2(C(=O)O)CC[C@]3(C)C(=CC[C@@H]4[C@@]5(C)C[C@@H](O)[C@H](O)C(C)(C)[C@@H]5CC[C@]43C)[C@@H]2C1` [MA, 2α,3β-dihydroxyolean-12-en-28-oic acid, reference compound], the IC50 was found to be 36.2 ± 2.5 µM in series [1], 32.2 ± 3.8 µM in series [2] and 99.2 ± 5.5 µM in series [3].
Regarding `CC1(C)CC[C@]2(C(=O)O)CC[C@]3(C)C(=CC[C@@H]4[C@@]5(C)CC[C@H](O)C(C)(C)[C@@H]5CC[C@]43C)[C@@H]2C1` [OA, 3β-hydroxyolean-12-en-28-oic acid, reference compound], the IC50 amounted to 106 ± 3.7 µM in series [1], 429.9 ± 0.7 µM in series [2] and 211.8 ± 0.5 µM in series [3].
